We go through 18 substances from patent US20240270821A1, “GIP/GLP1/GCG TRI-RECEPTOR AGONISTS AND USES THEREOF” (priority 2023, published 2024).

Read-outs that look alike come from different tables or passages of the source. Starred links: 1 amine or outer side, 2 acyl side, 3 side chain; linkers in the order of their positions; H or OH if unused. Non-standard residues stand in square brackets, D forms with d. Groups on a side chain read outwards from the residue. No end group written: not given here. *: point of attachment. C18 diacid = O=C(O)CCCCCCCCCCCCCCCCC(=O)*; αMePhe(2-F) = C[C@](N)(Cc1ccccc1F)C(=O)O; γGlu = O=C(O)[C@H](CCC(=O)[*:2])N[*:1]; αMe4Pal = C[C@](N)(Cc1ccncc1)C(=O)O; αMeY = C[C@](N)(Cc1ccc(O)cc1)C(=O)O; αMeF = C[C@](N)(Cc1ccccc1)C(=O)O; 4Pal = N[C@@H](Cc1ccncc1)C(=O)O; αMeL = CC(C)C[C@](C)(N)C(=O)O; αMeS = C[C@](N)(CO)C(=O)O; Orn = NCCC[C@H](N)C(=O)O; AEEA = NCCOCCOCC(=O)O; Aib = CC(C)(N)C(=O)O

Type in all cases: cell-based
In experiment [1] the target is T1, hGIPR (Homo sapiens, UniProt P48546).
T1 sequence (P48546 22-466): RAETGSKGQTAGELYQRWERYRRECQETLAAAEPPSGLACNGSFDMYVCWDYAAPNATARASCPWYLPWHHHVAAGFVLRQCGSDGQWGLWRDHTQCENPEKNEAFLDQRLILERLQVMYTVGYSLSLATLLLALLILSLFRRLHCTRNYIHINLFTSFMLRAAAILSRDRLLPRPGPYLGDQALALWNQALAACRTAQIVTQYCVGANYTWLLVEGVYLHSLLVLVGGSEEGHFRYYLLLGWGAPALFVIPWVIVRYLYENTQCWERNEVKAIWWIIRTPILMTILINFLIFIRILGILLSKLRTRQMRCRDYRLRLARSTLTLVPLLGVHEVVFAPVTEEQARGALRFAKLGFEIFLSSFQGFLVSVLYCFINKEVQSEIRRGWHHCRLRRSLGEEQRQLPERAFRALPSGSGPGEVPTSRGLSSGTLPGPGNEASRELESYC
Description: Functional cAMP activity in the presence of 1% HSA. As to conditions: read-out: cAMP Rel EC50, hGIPR.

In experiment [2] the target is T2, hGLP-1R (Homo sapiens, UniProt P43220). The experiment in a line: Functional cAMP activity in the presence of 1% HSA. As to conditions: read-out: cAMP Rel EC50, hGLP-1R.
T2 sequence (P43220 24-463): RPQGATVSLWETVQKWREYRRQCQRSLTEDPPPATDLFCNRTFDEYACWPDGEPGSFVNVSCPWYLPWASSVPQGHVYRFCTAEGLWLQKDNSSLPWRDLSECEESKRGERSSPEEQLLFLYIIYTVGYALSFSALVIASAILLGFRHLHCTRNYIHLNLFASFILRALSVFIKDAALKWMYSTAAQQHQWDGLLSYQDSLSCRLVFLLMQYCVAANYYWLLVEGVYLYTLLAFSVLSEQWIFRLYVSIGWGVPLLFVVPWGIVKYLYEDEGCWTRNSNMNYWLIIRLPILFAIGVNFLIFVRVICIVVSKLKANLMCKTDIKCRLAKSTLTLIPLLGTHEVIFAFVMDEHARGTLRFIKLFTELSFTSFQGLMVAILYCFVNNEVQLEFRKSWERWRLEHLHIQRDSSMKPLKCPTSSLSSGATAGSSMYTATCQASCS
The target of experiment [3] is human GcgR (Homo sapiens, UniProt P47871). Description: Functional cAMP activity in the presence of 1% HSA. As to conditions: read-out: cAMP Rel EC50, hGcgR.
human GcgR, sequence (P47871 26-477): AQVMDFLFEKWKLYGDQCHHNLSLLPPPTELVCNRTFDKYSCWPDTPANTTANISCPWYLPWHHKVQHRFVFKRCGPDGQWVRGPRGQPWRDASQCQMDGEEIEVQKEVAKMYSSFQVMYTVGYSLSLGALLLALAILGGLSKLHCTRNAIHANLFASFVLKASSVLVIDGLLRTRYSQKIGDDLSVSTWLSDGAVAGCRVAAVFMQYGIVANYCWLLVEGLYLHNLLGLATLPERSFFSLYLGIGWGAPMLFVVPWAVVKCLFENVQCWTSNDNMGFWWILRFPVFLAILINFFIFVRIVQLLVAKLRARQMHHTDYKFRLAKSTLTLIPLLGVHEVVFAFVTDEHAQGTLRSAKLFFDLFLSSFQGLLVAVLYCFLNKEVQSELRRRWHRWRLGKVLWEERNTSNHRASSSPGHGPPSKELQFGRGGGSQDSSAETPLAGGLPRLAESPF
Experiment [4] has as its target T1, hGIPR. Description: Functional cAMP activation in the presence of 0.1% casein (no HSA). As to conditions: read-out: Relative cAMP EC50, hGIPR.
The target in experiment [5] is T2, hGLP-1R. The description is as above. As to conditions: read-out: Relative cAMP EC50, hGLP-1R.
Experiment [6] addresses hGcgR (Homo sapiens, UniProt P47871). Described as above. As to conditions: read-out: Relative cAMP EC50, hGcgR.
Setting [7] is: in the presence of 0.1% casein (no HSA), geometric mean.
[8] abbreviates: 0.1% casein, no HSA, geometric mean.
[9] abbreviates: HEK-293 clonal cell line, 1% HSA, geometric mean of relative EC50.
Setting [10] is: in the presence of 0.1% casein (no HSA), geometric mean of relative EC50.
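For Relative cAMP EC50, hGIPR in this document: intracellular cAMP rise after 30 min at 37 °C read by HTRF against a standard curve, scaled between buffer alone (0%) and top control ligand concentration (100%), four-parameter fit.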
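For Relative cAMP EC50, hGLP-1R in this document: intracellular cAMP rise after 30 min at 37 °C read by HTRF, normalized between buffer only (0%) and maximal control ligand (100%), four-parameter variable-slope fit.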
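For Relative cAMP EC50, hGcgR in this document: intracellular cAMP rise after 30 min at 37 °C, read by HTRF against a cAMP standard curve, scaled from buffer only (0%) to maximal control ligand response (100%).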

hGcgR, sequence (P47871 26-477): as above

For the substance “H-Y[Aib]QGTFTSD[4Pal]SQ[αMeL]LD[Orn]K([dE-γGlu-C18 diacid])AQ[αMe4Pal]AFIE[αMeY]LLAGGPSSGAPPPSGSEEE-NH2 [Example 1082]”, the half-maximal effective concentration (EC50) (as a rule, the concentration giving half of the maximal effect) was found to be 12.3 nM in experiment [1]; 677 nM in experiment [2]; 1530 nM in experiment [3]; 0.099 nM in experiment [4] (setting [7]); 4.13 nM in experiment [5] (setting [7]); 12.3 nM in experiment [6] (setting [7]).

In the case of “H-Y[Aib]QGTFTSD[4Pal]SQ[αMeL]LDKK([AEEA-γGlu-γGlu-C18 diacid])AQ[αMe4Pal]AFIEYLIE[Aib]GPSSGAPPPSGS-NH2 [Example 860]”, the EC50 worked out at 19.2 nM in experiment [1]; 414 nM in experiment [2]; 565 nM in experiment [3]; 0.202 nM in experiment [4] (setting [7]); 3.95 nM in experiment [5] (setting [7]); 11 nM in experiment [6] (setting [7]).

Turning to “H-Y[Aib]QGT[αMePhe(2-F)]TSD[4Pal]SI[αMeL]LD[Orn]K([AEEA-γGlu-C18 diacid])AQ[αMe4Pal][Orn]FI[dE][αMeY]LIEGGPSSGEPPPESE-NH2 [Example 677]”, the EC50 in experiment [1] was determined as 1.03 nM; in experiment [2] it was 20.8 nM; in experiment [3] it was 190 nM; in experiment [4], 0.0111 nM; in experiment [5] it was 0.252 nM; in experiment [6] it was 2.21 nM.

Turning to “H-Y[Aib]QGT[αMePhe(2-F)]TSDYSK[αMeL]LDKK([AEEA-γGlu-C18 diacid])AQ[Aib]QFIEYLEEGGPSSGEPPPSEG-NH2 [Example 292]”, the 50% effective concentration (EC50) in experiment [1] (HEK-293 clonal cells expressing hGIPR, in the presence of 1% HSA, geometric mean of relative EC50) was 92.7 nM; in experiment [2] (HEK-293 clonal cells expressing hGLP-1R, in the presence of 1% HSA, geometric mean of relative EC50), 129 nM; in experiment [3] (HEK-293 clonal cells expressing hGcgR, in the presence of 1% HSA, geometric mean of relative EC50), 583 nM; in experiment [4] (setting [7]), 1.02 nM; in experiment [5] (setting [7]), 1.03 nM; in experiment [6] (setting [7]), 1.84 nM.

With “H-Y[Aib]QGTFTSD[4Pal]S[Orn][αMeL]LDKK([γGlu-γGlu-C18 diacid])AQ[αMe4Pal]AFIE[αMeY]LIAGGPSSGEPPPSGS-NH2 [Example 1014]”, the concentration giving a half-maximal response (EC50) in experiment [1] was 5.62 nM; in experiment [2], 86.4 nM; in experiment [3], 277 nM; in experiment [4] (setting [7]), 0.0412 nM; in experiment [5] (setting [7]), 0.718 nM; in experiment [6] (setting [7]), 3.62 nM.

“H-Y[Aib]QGT[αMePhe(2-F)]TSD[4Pal][αMeS]I[αMeL]LD[Orn]K([γGlu-γGlu-C18 diacid])AQ[Aib]NFI[dE][αMeY]LIEGGPSSGEPEPEEG-NH2 [Example 474]”: the concentration giving a half-maximal response (EC50) in experiment [1] stood at 0.743 nM; in experiment [2] it was 10.6 nM; in experiment [3] it was 166 nM; in experiment [4] it was 0.0125 nM; in experiment [5], 0.236 nM; in experiment [6] it was 3.88 nM.

Take “Y[Aib]QGT[αMePhe(2-F)]TSD[4Pal][αMeS]I[αMeL]LD[Orn]K([γGlu-γGlu-C18 diacid])AQ[αMe4Pal]EFI[dE][αMeY]LIEGGPSSGAPPPEGGGEEE-NH2 [Example 1221]”: the EC50 in experiment [1] came out at 0.814 nM; in experiment [2], 57.8 nM; in experiment [3] it was 185 nM; in experiment [4] (setting [8]), 0.0111 nM; in experiment [5] (setting [8]), 0.839 nM; in experiment [6] (setting [8]) it was 2.27 nM.

On to “Y[Aib]QGT[αMePhe(2-F)]TSD[4Pal][αMeS]I[αMeL]LD[Orn]K([AEEA-γGlu-C18 diacid])AA[Aib]EFI[dE][αMeY]LIEGGPSSGAPPPSGGGE-NH2 [Example 745]”, for which the EC50 was 1.36 nM in experiment [1]; 29 nM in experiment [2]; 266 nM in experiment [3]; 0.012 nM in experiment [4]; 0.212 nM in experiment [5]; 1.86 nM in experiment [6].

As for “H-Y[Aib]QGT[αMePhe(2-F)]TSD[4Pal]SI[αMeL]LDKK([γGlu-γGlu-C18 diacid])AQ[Aib][Orn]FIEYLAEGGPSSGEPPPEGSEE-NH2 [Example 650]”, the EC50 in experiment [1] (setting [9]) came out at 3.1 nM; in experiment [2] (setting [9]), 31.4 nM; in experiment [3] (setting [9]), 574 nM; in experiment [4] (setting [10]) it was 0.0814 nM; in experiment [5] (setting [10]), 0.649 nM; in experiment [6] (setting [10]), 16.2 nM.

In the case of “H-Y[Aib]QGT[αMePhe(2-F)]TSD[4Pal]SI[αMeL]LD[Orn]K([AEEA-γGlu-C18 diacid])AQ[αMe4Pal][Orn]FI[dE][αMeY]LIEGGPSSGDPPPEGTE-NH2 [Example 731]”, the EC50 in experiment [1] amounted to 1.27 nM; in experiment [2], 27.4 nM; in experiment [3] it was 291 nM; in experiment [4], 0.0117 nM; in experiment [5], 0.267 nM; in experiment [6] it was 2.35 nM.

Regarding “H-Y[Aib]QGTFTSD[4Pal][αMeS]Q[αMeL]LD[Orn]K([dE-γGlu-C18 diacid])AQ[αMe4Pal]QFIE[αMeY]LIA[Aib]GPSSGEPPPSGGGE-NH2 [Example 1182]”, the EC50 in experiment [1] was determined as 2.73 nM; in experiment [2], 80.4 nM; in experiment [3], 172 nM; in experiment [4] (setting [7]), 0.0316 nM; in experiment [5] (setting [7]), 0.797 nM; in experiment [6] (setting [7]) it was 1.24 nM.

Consider “H-Y[Aib]QGT[αMeF]TSD[4Pal][αMeS]I[αMeL]LD[Orn]K([γGlu-γGlu-C18 diacid])AQ[αMe4Pal]EFI[dE][αMeY]LIEGGPSSGEPPPSGE-NH2 [Example 1171]”, for which the EC50 in experiment [1] was 0.718 nM; in experiment [2] it was 52.9 nM; in experiment [3], 233 nM; in experiment [4] (setting [7]), 0.00953 nM; in experiment [5] (setting [7]) it was 0.529 nM; in experiment [6] (setting [7]) it was 2.19 nM.

For the substance “Y[Aib]QGT[αMePhe(2-F)]TSD[4Pal][αMeS]I[αMeL]LD[Orn]K([γGlu-γGlu-C18 diacid])AQ[Aib][Orn]FI[dE][αMeY]LSEGGPSSGEPPPSGSEE-NH2 [Example 569]”, the EC50 worked out at 12.4 nM in experiment [1]; 84.4 nM in experiment [2]; 697 nM in experiment [3]; 0.199 nM in experiment [4]; 1.12 nM in experiment [5]; 4.34 nM in experiment [6].

Regarding “Y[Aib]QGTFTSD[4Pal]SQ[αMeL]LDKK([AEEA-γGlu-C18 diacid])AQ[αMe4Pal]AFIEYLIAGGPSSGEPPPSGS-NH2 [Example 828]”, the EC50 was determined as 14.9 nM in experiment [1]; 114 nM in experiment [2]; 481 nM in experiment [3]; 0.149 nM in experiment [4] (setting [7]); 1.17 nM in experiment [5] (setting [7]); 3.58 nM in experiment [6] (setting [7]).

With “H-Y[Aib]QGT[αMePhe(2-F)]TSD[4Pal][αMeS]I[αMeL]LD[Orn]K([γGlu-γGlu-C18 diacid])AQ[Aib][Orn]FI[dE][αMeY]LAEGGPSSGEPPPSGTGE-NH2 [Example 545]”, the EC50 amounted to 2.74 nM in experiment [1]; 40.2 nM in experiment [2]; 180 nM in experiment [3]; 0.0432 nM in experiment [4]; 0.602 nM in experiment [5]; 2.71 nM in experiment [6].

In the case of “H-Y[Aib]QGT[αMePhe(2-F)]TSD[4Pal]SI[αMeL]LD[Orn]K([AEEA-γGlu-C18 diacid])AQ[αMe4Pal][Orn]FI[dE][αMeY]LIEGGPSSGEPPPEGTGE-NH2 [Example 680]”, the EC50 stood at 1.04 nM in experiment [1]; 28.6 nM in experiment [2]; 256 nM in experiment [3]; 0.01 nM in experiment [4]; 0.246 nM in experiment [5]; 2 nM in experiment [6].

For the substance “H-Y[Aib]QGT[αMePhe(2-F)]TSD[4Pal][αMeS]I[αMeL]LD[Orn]K([AEEA-γGlu-C18 diacid])AQ[Aib][Orn]FIEYLIEGGPSSGEPPPEEG-NH2 [Example 476]”, the half-maximal effective concentration (EC50) in experiment [1] was determined as 1.29 nM; in experiment [2] it was 14.6 nM; in experiment [3] it was 90.2 nM; in experiment [4], 0.0131 nM; in experiment [5], 0.164 nM; in experiment [6], 1.34 nM.

As to “H-Y[Aib]Q[dA]T[αMePhe(2-F)]TSD[4Pal][αMeS]I[αMeL]LD[Orn]K([AEEA-γGlu-C18 diacid])AQ[Aib]EFI[dE][αMeY]LVEGGPSSGAPPPSGS-NH2 [Example 1204]”, the EC50 in experiment [1] was 15.8 nM; in experiment [2] it was 37.4 nM; in experiment [3] it was 507 nM; in experiment [4] (setting [8]) it was 0.21 nM; in experiment [5] (setting [8]), 0.338 nM; in experiment [6] (setting [8]) it was 3.5 nM.
